# Experimental data: patent US12059429B2, “Hornerin: a novel non-VEGF mediated angiogenic protein expressed in both human and mouse angiogenic endothelial cells and human pancreatic cancer cells” (University of Virginia Patent Foundation, priority 2018, dated 2024)
# Key:
# hornerin = assay: Immunofluorescent microscopy of hornerin protein in tumor sections; format: in vivo, mouse; conditions: vs Scr siRNA
# Method: Tumor sections were deparaffinized, rehydrated, heated in antigen retrieval solution (Vector), blocked for 30 minutes in blocking buffer, and incubated with anti-CD34 antibody (Abcam, ab8158, clone MEC14.7; 1:100) in blocking buffer overnight at 4° C. The sections were then incubated with goat anti-rat FITC secondary antibody (Abcam, ab6840; 1:100) in blocking buffer prior to mounting with Prolong Gold Antifade reagent (Invitrogen). Anti-actin, α-smooth muscle Cy3 antibody (Sigma, C6198, clone 1A4; 1:200) was added to the primary antibody solution if assaying for alpha-smooth muscle actin. […] Images were collected using a Nikon TE 2000-E2 microscope (Nikon Instruments) equipped with a Melles Griot Argon Laser System (Melles Griot, Carlsbad, CA, USA) and a Nikon D-Eclipse C1 confocal attachment and analyzed by Measurement Tool in Image J. To measure the relative hornerin expression in tumor vessels, three vessel segments per image were isolated and their mean intensity and area were measured and recorded. A weighted mean intensity was calculated to correct for differences in selected area. To measure the relative hornerin expression in tumor tissue, the mean intensity from three square sections (75×75 pixel) of tumor tissue per image was measured and recorded.
# L3.6pl tumors = assay: Ki67 and cleaved caspase 3 immunofluorescence in tumor sections; format: in vivo, mouse; conditions: day 15 tumor sections
# Method: Vessel parameters were measured using RAVE software (Seaman et al., 2011). For detection of proliferation and apoptosis, the sections were incubated with the primary antibodies anti-Ki67 (Abcam, ab15580; 1:200) or anti-cleaved caspase 3 (Cell Signaling, 9661; 1:200), respectively, overnight at 4° C. followed by incubation with anti-rabbit AF594 (Abcam, 150080; 1:200).
# human hornerin = assay: In vitro siRNA treatment of human keratinocytes (immunoblot); format: cell-based
# Method: For in vitro siRNA-mediated hornerin knockdown, COCA cells and human keratinocytes were plated at a density of 0.1×10^6 cells/well in a six-well cluster plate. The cells were treated the following day with Scr siRNA or Hrnr siRNA (Invitrogen; siRNA sequences identical to those utilized in tumor studies) following an established protocol (see Rachow et al., 2013). Briefly, 100 μL of 10 μM siRNA and 12.5 μL of Lipofectamine 2000 (LF2000; Invitrogen) were added to separate 625 μL OptiMEM (Thermo Fisher Scientific) aliquots. After 5 minutes at RT, the solutions were mixed and incubated for an additional 30 minutes, upon which 5 ml of keratinocyte media were added. The cells were incubated overnight in 3 ml of the siRNA/LF2000/media mixture, replenished the following morning with media containing 2 mM CaCl2) to induce differentiation, and lysed in RIPA buffer 8 hours post-media change. Lysate preparations were subjected to immunoblot using the primary antibodies anti-human hornerin (Abcam; 1:1000), anti-mouse hornerin (Santa Cruz Biotechnology, Dallas, TX, USA, sc164605; 1:200), or anti-beta actin (Cell Signaling; 1:4000), and respective secondary antibodies anti-goat HRP (R&D Systems; 1:10,000), and anti-mouse HRP (R&D Systems; 1:10,000). Uncropped hornerin immunoblots are represented in FIGS. 6A and 6B.
# tumor vascularity = assay: DCE-MRI and Ktrans measurement of L3.6pl tumors; format: in vivo, mouse
# Method: To assess the in vivo function of tumor vascularity, DCE-MRI was performed on a 7.0 T Clinscan small animal imaging system (Bruker, Ettlingen, Germany) using a 30 mm inner-diameter birdcage radiofrequency coil. Mice (N=7) were imaged prior to treating tumors with Hrnr and Scr siRNA and again 6 days after treatment. Mice treated with the VEGFR inhibitor AV-951 (N=5) were image pre-siRNA treatment and 6 days posttreatment. Mice were anesthetized with 1.25% isoflurane anesthesia, which was maintained during imaging. Respiration and ECG were monitored during imaging using an MRI-compatible system (SA Instruments, Stony Brook, NY, USA). An indwelling tail vein catheter was established for administration of the gadolinium contrast agent Gd-DTPA, which is required in DCE imaging. Mice were placed supine in the imaging system, and body temperature was maintained at 36° C.±1° C. using circulating, temperature controlled water. Tumors were localized using a spin-echo imaging sequence, and an imaging plane that transected both tumors was chosen for DCE imaging.
# A dual-Gd-bolus DCE-MRI acquisition strategy (Christian et al., 2004) was employed, which uses a low dose of contrast agent to accurately acquire the undistorted Gd concentration vs. time curve in the blood pool and a higher dose of contrast agent to acquire the Gd concentration vs. time curve in the tumor with high signal-to-noise ratio, since Gd-DTPA is known to have signal saturation effects at high doses in the blood pool (Christian et al., 2004). […]
substance,measurement,setting,value
5′-GCAUGGAUCUUGUUGCGGUTT-3′ [Hrnr siRNA],decrease in hornerin expression in endothelial cells,hornerin; CD34+ tumor vessels,30%
same,hornerin expression in epithelial cells from tumors,hornerin,no difference
same,cleaved caspase 3 levels in tumors relative to control,L3.6pl tumors,two-fold increase
same,loss of hornerin relative to Scr siRNA,human hornerin; similar conditions,~10%
same,hornerin expression level relative to Scr siRNA,human hornerin; similar siRNA conditions,~90%
same,tumor concentration of Gd-DTPA,"tumor vascularity; after 6 days of siRNA injection every other day, vs Scr siRNA",two-fold reduced
same,reduction in Ktrans,"tumor vascularity; after 6 days of siRNA injections, vs control",2.4 fold
